# Source: US7833532B2, “Immunogenic lipopeptides comprising T-helper and cytotoxic T lymphocyte (CTL) epitopes” (The Council of The Queensland Institute of Medical Research, priority 2002, dated 2010)
# Entries after “also recorded” stand apart in the source; their conditions may differ. Side chains are listed from the residue outwards. Ends that are not written are not given here.
# How the values were obtained:
# [1] = test system: splenocytes; test: IFN-gamma producing splenocytes after immunization with L. monocytogenes CTL epitope peptides; assay type: in vivo, BALB/c mice; details: 9 nmoles subcutaneously, in vitro stimulation with CTL epitope, day 28
# Description: FIG. 11 is a graphical representation showing induction of interferon-gamma producing cells by lipopeptide. Peptide comprising a T-helper epitope and a CTL epitope of Listeria monocytogenes linked via the epsilon amino group of an internal lysine residue positioned between said epitopes to Pam2Cys (i.e. the peptide [P25]-Lys(Pam2Cys-Ser-Ser)-[LLO91-99] listed in FIG. 2 and based upon SEQ ID NO: 175), or lipopeptide(s) based on this structure in which Pam2Cys was linked through the epsilon amino group of said lysine, were used to inoculate mice. […] Splenocytes were obtained from the immunized animals and stimulated in vitro with either the isolated CTL epitope having the sequence set forth in SEQ ID NO: 172 (open bars) or no antigen (filled bars), and the number of (IFN-gamma) producing cells present was measured 28 days later. […]
# 5 BALB/c mice were inoculated with 9 nmoles of non-lipidated peptide ([P25]-Lys-[LLO91-99]), or lipidated peptide ([P25]-Lys(Pam2Cys-Ser-Ser)-[LLO91-99]) in which lipid was attached between the two epitopes at the approximate centre of the molecule, or with 1000 bacteria. […] The number of interferon-γ producing cells present in spleen was measured on day 28 following in vitro stimulation with the CTL epitope or no antigen. […]
# [2] = test system: Listeria monocytogenes; test: Protection against L. monocytogenes challenge (colony forming units in liver); assay type: in vivo; details: 9 nmol subcutaneously, i.v. challenge 28 days after priming, CFU in liver; relative to non-lipidated peptide or PBS
# Description: FIG. 12 is a graphical representation showing enhanced protection against L. monocytogenes infection for mice immunized with the lipopeptide designated [P25]-Lys(Pam2Cys-Ser-Ser)-[LLO91-99] in FIG. 2 (based upon SEQ ID NO: 175). Five 5 BALB/c mice were inoculated intravenously with 1,000 bacteria (column 1), or immunized subcutaneously with PBS (column 2) or 9 nmol [P25]-Lys(Pam2Cys-Ser-Ser)-[LLO91-99] peptide (column 3) or 9 nmol non-lipidated [P25]-Lys-[LLO091-99] peptide (SEQ ID NO: 175; column 4), as indicated on the x-axis. Mice were challenged with whole bacteria and the number of colony forming units present in liver was measured 28 days post-challenge (ordinate).
# Listeria monocytogenes EGD was cultured overnight at 37° C. on Horse Blood Agar (HBA) plates. The bacteria were washed off the plates using sterile PBS and the concentration adjusted to 5×10^3 Listeria cells/ml. Balb/c mice were infected intravenously with 1×10^3 Listeria cells. The dose was checked retrospectively by plating serial 10-fold dilutions on HBA plates.
# Mice immunized s.c. with 9 nmol peptide immunogen or PBS, or i.v. with 1000 bacteria, were challenged by i.v. injection with bacteria 28 days after priming and the number of colony forming units of bacteria present in the liver determined 28 days after challenge.
substance,measurement,setting,value
[P25]-Lys(Pam2Cys-Ser-Ser)-[LLO91-99]: peptide [P25]-Lys-[LLO91-99] and a lipid of the Formula (IV) conjugated to the epsilon-amino group of the internal lysine (KLIPNASLIENCTKAELK([Ser-Ser-Pam2Cys])GYKDGNEYI),IFN-γ producing cells per million splenocytes relative to non-lipidated peptide or PBS control,[1],about 15 fold
same,protection against challenge with whole bacteria,[2],successfully provides protection; also recorded: significantly enhanced protection
